Data taken from patent US10913712B2, “Tetracycline compounds” (Tetraphase Pharmaceuticals, Inc., priority 2012, dated 2021).
≈ marks a conversion by molar mass, not a printed value.

System: Burkholderia cenocepacia BC240 (cystic fibrosis isolate, MDR)
Assay: MIC assay
Type: cell-based
Details: Table 6; control compounds

CN(C)c1cc(NC(=O)CNC(C)(C)C)c(O)c2c1C[C@H]1C[C@H]3[C@H](N(C)C)C(O)=C(C(N)=O)C(=O)[C@@]3(O)C(O)=C1C2=O [Tigecycline, tigecycline]
MIC BC 240: 16 µg/mL (≈ 27.3 µM)

CN(C)[C@@H]1C(O)=C(C(N)=O)C(=O)[C@@]2(O)C(O)=C3C(=O)c4c(O)cccc4C[C@H]3C[C@@H]12 [Sancycline, sancycline]
MIC BC 240: 4 µg/mL (≈ 9.65 µM)
